Structures are written as SMILES.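 48-hour exposure; five concentrations; linearly interpolated endpoints. At the GI50, growth is halved.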 The source made the active and inactive calls. Rule as the data show it: active = GI50 up to about 1.1 µM and inactive = higher. Some results are limits rather than exact numbers.

Among the test systems are TK-10; OVCAR-8; CAKI-1; MOLT-4; NCI-H522; U-251; UO-31; KM12; HCC 2998; 786-0; HOP-92; HT-29; NCI/ADR-RES; HOP-62; SW-620; HCT-116; OVCAR-3; HL-60; EKVX; CCRF-CEM.
Common to all, as to test: NCI anticancer screen, dose series, 48 h

Regarding `NS(=O)(=O)c1nnc(NC(=O)/C=C/C(=O)O)s1`, the GI50 with TK-10, in the assay with OVCAR-8, with CAKI-1, in the assay on MOLT-4, in the assay with NCI-H522 and with U-251 was > 100 µM (inactive) each time. Also, the GI50 in the assay with UO-31, in the assay on KM12, in the assay on HCC 2998, with 786-0, in the assay with HOP-92 and with HT-29 was > 100 µM (inactive) in each case. Also, the GI50 in the assay with NCI/ADR-RES, in the assay on HOP-62, in the assay with SW-620, with HCT-116, with OVCAR-3 and with HL-60 was > 100 µM (inactive) in each case. In the assay with EKVX, the GI50 was > 100 µM (inactive).

`Cn1c(=O)c2c(nc3n2CC(C(=O)O)N3)n(C)c1=O` (configuration not stated): the GI50 is > 100 µM (inactive) with TK-10; > 100 µM (inactive) in the assay on OVCAR-8; > 100 µM (inactive) with CAKI-1; 0.036 µM (active) in the assay on MOLT-4; > 100 µM (inactive) in the assay on NCI-H522; > 100 µM (inactive) with U-251. Further, the GI50 in the assay on UO-31, with KM12, in the assay on HCC 2998, with 786-0, with HOP-92 and in the assay with HT-29 was > 100 µM (inactive) in each case. The GI50 in the assay on NCI/ADR-RES, in the assay on HOP-62, in the assay on SW-620, in the assay on HCT-116, with OVCAR-3 and with HL-60 was > 100 µM (inactive) throughout. The GI50 with EKVX was > 100 µM (inactive).

As to `Fc1ccc(OCc2nc3cc(C(F)(F)F)ccc3nc2-c2ccccc2)cc1`, the GI50 is > 100 µM (inactive) in the assay on OVCAR-8; > 100 µM (inactive) in the assay with CAKI-1; 13.2 µM (inactive) in the assay with MOLT-4; 28.4 µM (inactive) in the assay on NCI-H522; > 100 µM (inactive) in the assay on U-251; > 100 µM (inactive) with UO-31. The GI50 was > 100 µM (inactive) with KM12; 99.5 µM (inactive) with HCC 2998; > 100 µM (inactive) with 786-0; > 44.1 µM (inactive) in the assay with CCRF-CEM; > 45.3 µM (inactive) in the assay on HOP-92; 21.4 µM (inactive) with HT-29. The GI50 is 98.2 µM (inactive) in the assay with NCI/ADR-RES; > 100 µM (inactive) in the assay on HOP-62; > 100 µM (inactive) in the assay with SW-620; 99.5 µM (inactive) in the assay on HCT-116; > 100 µM (inactive) in the assay on OVCAR-3; > 47 µM (inactive) in the assay with HL-60. The GI50 with EKVX was > 86.9 µM (inactive).

As to `COc1ccccc1NC(=O)C(=O)C(C#N)CC(C)(C)C=O` (configuration not stated), the GI50 in the assay with TK-10, in the assay on OVCAR-8, in the assay on CAKI-1, in the assay on MOLT-4, with NCI-H522 and in the assay with U-251 was > 100 µM (inactive) throughout. For the same compound, the GI50 with UO-31, in the assay on KM12, with HCC 2998, with 786-0, in the assay with HOP-92 and in the assay with HT-29 was > 100 µM (inactive) throughout. Besides, the GI50 in the assay with NCI/ADR-RES, with HOP-62, in the assay with SW-620, in the assay on HCT-116, in the assay on OVCAR-3 and in the assay on HL-60 was > 100 µM (inactive) throughout. For the same compound, the GI50 with EKVX is > 100 µM (inactive).

As for `CN(C)c1ccc(C2C(Cl)C(=O)N2NC(=O)c2c(Cl)c(Cl)c(Cl)c(Cl)c2-c2nc3ccccc3[nH]2)cc1` (configuration not stated), the GI50 in the assay with OVCAR-8 was 2.4 µM (inactive); in the assay on CAKI-1 it was 15.6 µM (inactive); with MOLT-4 it was 2.68 µM (inactive); with NCI-H522, 2.79 µM (inactive); in the assay with UO-31, 19.4 µM (inactive); with KM12, 17.9 µM (inactive). In addition, the GI50 was 16.3 µM (inactive) in the assay with HCC 2998; 2.56 µM (inactive) in the assay on 786-0; 3.36 µM (inactive) with CCRF-CEM; 5.4 µM (inactive) in the assay with HOP-92; 22.3 µM (inactive) in the assay with HT-29; 21.6 µM (inactive) with NCI/ADR-RES. Moreover, the GI50 in the assay with SW-620 was 4.29 µM (inactive); in the assay on HCT-116, 5.2 µM (inactive); with OVCAR-3, 19.4 µM (inactive); in the assay on HL-60, 3.3 µM (inactive); with EKVX, 18.3 µM (inactive).

As to `COc1cc(C2OC[C@@H]3C(=O)OC[C@H]23)cc(O)c1OC` (some centres not stated), the GI50 in the assay with TK-10, in the assay on OVCAR-8, in the assay on CAKI-1, in the assay on MOLT-4, in the assay with NCI-H522 and in the assay on U-251 was > 100 µM (inactive) each time. Also, the GI50 in the assay on UO-31, in the assay on KM12, in the assay on HCC 2998, in the assay on 786-0, in the assay with CCRF-CEM and in the assay with HOP-92 was > 100 µM (inactive) each time. Also, the GI50 with HT-29, with NCI/ADR-RES, in the assay on SW-620, in the assay on HCT-116, in the assay with OVCAR-3 and in the assay on HL-60 was > 100 µM (inactive) throughout. Further, the GI50 in the assay with EKVX was > 100 µM (inactive).

For `NC1=C(N2CCCCC2)C(=O)NC2=N/C(=C\c3ccccc3)C(=O)N21`, the GI50 in the assay on TK-10 was > 100 µM (inactive); in the assay with OVCAR-8, > 100 µM (inactive); in the assay on CAKI-1, > 100 µM (inactive); with MOLT-4 it was 62.1 µM (inactive); in the assay on NCI-H522 it was 63.2 µM (inactive); in the assay on U-251, > 100 µM (inactive). Further, the GI50 in the assay on UO-31, with KM12, in the assay with HCC 2998, in the assay on 786-0, in the assay on CCRF-CEM and in the assay on HOP-92 was > 100 µM (inactive) each time. In addition, the GI50 in the assay on HT-29 is > 100 µM (inactive); with NCI/ADR-RES, > 100 µM (inactive); in the assay with SW-620 it was > 100 µM (inactive); with HCT-116, > 100 µM (inactive); in the assay with HL-60 it was 32 µM (inactive); with EKVX it was 92.9 µM (inactive).

Take `O=c1c2cc(-c3ccccc3)cnc2sn1-c1ccc(Br)cc1`: the GI50 in the assay with OVCAR-8 was > 100 µM (inactive); with CAKI-1, > 100 µM (inactive); in the assay on MOLT-4, > 100 µM (inactive); in the assay with NCI-H522 it was 47.5 µM (inactive); in the assay on U-251, > 100 µM (inactive); in the assay with UO-31, > 100 µM (inactive). In addition, the GI50 was > 100 µM (inactive) in the assay on KM12; > 100 µM (inactive) with HCC 2998; > 100 µM (inactive) in the assay with 786-0; 95.5 µM (inactive) in the assay on CCRF-CEM; > 100 µM (inactive) with HOP-92; > 100 µM (inactive) in the assay on HT-29. Moreover, the GI50 in the assay with NCI/ADR-RES was > 100 µM (inactive); with HOP-62, > 100 µM (inactive); in the assay on SW-620 it was > 100 µM (inactive); with HCT-116 it was > 100 µM (inactive); in the assay on OVCAR-3 it was 37 µM (inactive); with HL-60, > 100 µM (inactive). Also, the GI50 with EKVX was > 100 µM (inactive).

Consider `CC1(C)C2CCC3=C(CCC4(C)C5C[C@](C)(C(=O)O)CC[C@]5(C)CC[C@]34C)[C@@]2(C)CC[C@@H]1O` (some centres not stated), for which the GI50 with TK-10 is 17.8 µM (inactive); with CAKI-1, 18.9 µM (inactive); in the assay with MOLT-4, 15.8 µM (inactive); in the assay with NCI-H522, 20 µM (inactive); in the assay with U-251, 13.1 µM (inactive); in the assay on UO-31, 29.4 µM (inactive). Further, the GI50 was 15.4 µM (inactive) with KM12; 64.9 µM (inactive) with HCC 2998; 15.9 µM (inactive) in the assay with 786-0; 14.9 µM (inactive) with CCRF-CEM; 18.6 µM (inactive) with HOP-92; 17.5 µM (inactive) in the assay with HT-29. Moreover, the GI50 with NCI/ADR-RES was 17.9 µM (inactive); with HOP-62, 17 µM (inactive); in the assay on SW-620 it was 16.6 µM (inactive); with HCT-116, 16.6 µM (inactive); in the assay on OVCAR-3, 15.9 µM (inactive); in the assay with HL-60, 18.1 µM (inactive). Also, in the assay with EKVX, the GI50 is 20.4 µM (inactive).

As to `Cc1c/c(=N/NC(=O)c2ccncc2)n2nc(N)sc2n1`, the GI50 in the assay on OVCAR-8, in the assay on CAKI-1, in the assay on MOLT-4, in the assay with NCI-H522, in the assay with U-251 and in the assay on UO-31 was > 100 µM (inactive) each time. The GI50 in the assay with KM12, in the assay on HCC 2998, in the assay with 786-0, in the assay with CCRF-CEM, in the assay with HOP-92 and in the assay with HT-29 was > 100 µM (inactive) each time. For the same compound, the GI50 in the assay with NCI/ADR-RES, in the assay on HOP-62, in the assay on SW-620, in the assay with HCT-116, in the assay on OVCAR-3 and in the assay on HL-60 was > 100 µM (inactive) each time. In the assay with EKVX, the GI50 was > 100 µM (inactive).

Values taken from ChEMBL document CHEMBL1201862, “PubChem BioAssay data set” (2004).
